Article PMC6801405, “Discovery of 3-Arylquinoxaline Derivatives as Potential Anti-Dengue Virus Agents” (International Journal of Molecular Sciences, 2019)
“Also recorded” adds a separate entry of the source.

What was measured:
DENV [1] = experiment: DENV RNA levels by RT-qPCR in DENV-infected Huh-7 cells; format: cell-based, dengue virus; conditions: 0.5, 1, 5 and 10 μM, three days
Description: (§1) To further confirm the anti-DENV effect of compound 19a, we treated compound 19a at indicated concentrations in Huh-7 cells for three days.
Total cellular RNA samples were extracted after three days of compound treatment through a Total RNA Miniprep Purification Kit (GeneMark Biolab, Taiwan) following the manufacturer’s instructions, and then transcribed to complementary DNA (cDNA) with Moloney murine leukemia virus (M-MLV) reverse transcriptase (Promega, USA). The levels of DENV-2 replication and COX-2 were analyzed by RT-PCR as described previously with the following specific primers: a forward primer, 5′–[…] AGC–3′, and a reverse primer, 5′–[…]–3′, targeting the DENV-2 NS5 gene 44. DENV-2 and COX-2 RNA levels were normalized to the cellular glyceraldehyde-3-phosphate dehydrogenase (GAPDH) RNA level of each sample.
Figure 2 Inhibition of dengue virus (DENV) RNA expression in DENV-infected Huh-7 cells by 19a. Huh-7 cells were treated with 0.5, 1, 5, and 10 μM 19a for three days. Total RNA was extracted and quantified DENV RNA levels by RT-qPCR. DENV RNA expression was normalized by cellular glyceraldehyde-3-phosphate dehydrogenase (GAPDH) mRNA. Treatment with 0.1% dimethyl sulfoxide (DMSO) served as a mock control. The results are expressed as the means ± standard deviations (SD) of triplicate experiments.

DENV2 = experiment: microbe, parasite or virus in culture; format: cell-based, dengue virus
Procedure: Anti-DENV activities were determined by firefly luciferase activity.
Huh-7-DV-Fluc cells were seeded in 24-well plates at a density of 2 × 10^4 cells per well, and treated with the 3-arylquinoxaline compounds at two concentrations (1 and 10 μM) or 0.1% DMSO as control. After three days of incubation, the luciferase activity assay was performed using the Bright-Glo Luciferase assay system (Promega, Madison, WI, USA) according to the manufacturer’s instructions.

[2] = Cytotoxicity assay (XTT method); format: cell-based, Human; conditions: human, mean ± SD
Procedure: (§2) For cytotoxicity tests, run in parallel with antiviral assays, plates at an initial density of 5 × 10^3 cells/well were treated with or without serial dilutions of test compounds. Cell viability was determined after 72 h at 37 °C in a humidified CO2 (5%) atmosphere by the (2,3-bis[2-methyloxy-4-nitro-5-sulfophenyl]-2H-tetrazolium-5-carboxanilide) (XTT) method.

Huh-7 cells = experiment: Cytotoxicity assay (XTT method); format: cell-based, Human
Procedure: as §2

DENV [3] = experiment: DENV protein synthesis by Western blotting in Huh-7 cells; format: cell-based, dengue virus; conditions: 0.5, 1, 2.5 and 5 μM, three days
Procedure: as §1
Huh-7 cells were seeded in 24-well plates at a density of 5 × 10^4 cells per well overnight and treated with indicated reagent at proper concentrations for three days. Cells were washed with cold phosphate-buffered saline (PBS) and lysed by radioimmunoprecipitation assay (RIPA) lysis buffer (50 mM Tris-HCl, pH 7.5, 150 mM NaCl, 1% Nonidet P-40, 2 mM ethylenediaminetetraacetic acid (EDTA), 1 mM ethylene glycol bis(2-aminoethyl)tetraacetic acid (EGTA), 1 mM NaVO3, 10 mM NaF, 1 mM dithiothreitol (DTT), 1 mM phenylmethylsulfonyl fluoride (PMSF), 25 μg/mL aprotinin, and 25 μg/mL leupeptin) and stored at −20 °C. The protein concentration was determined by the Bradford method. Then, 10-μg protein samples were separated by 10% SDS-PAGE and transferred onto a polyvinylidene fluoride (PVDF) membrane. The membrane was blocked with 5% non-fat dried milk and incubated with specific antibodies against GAPDH (1:10000, Genetex, Irvine, CA, USA) and COX-2 (1:1000; Cayman Chemical, Ann Arbor, ML, USA). […] The blotting signal was developed using an enhanced chemiluminescence (ECL) detection kit (PerkinElmer, Waltham, MA, USA) and was counted by the software Quantity One (Bio-Rad, Hercules, CA, USA). […]

For `COc1ccc(-c2nc3ccccc3nc2C(O)c2ccccc2)cc1` (stereo not shown) [Compound 19a, [3-(4-Methoxyphenyl)quinoxalin-2-yl](phenyl)methanol], the melting point was 160.4 to 161.9 °C, the “DENV RNA replication (RT-qPCR)” value (DENV [1]) was “dose-dependently reduced” and the “DENV2 % Inhibition at 10 μM” value (DENV2; 10 μM, Huh-7-DV-Fluc cells, three days, mean ± SD) was 82.71 ± 2.88%. For the same molecule, the “SI (selectivity index, CC50/EC50)” value (DENV2; CC50 Huh-7 / EC50 DENV) was over 155.04, the inhibition at 1 µM (DENV2; Dengue virus, DENV2, 72 h, 1 μM, Huh-7-DV-Fluc cells, three days, mean ± SD) was 36.7 ± 3.71% and the EC50 (DENV2; Dengue virus, DENV2, DENV replication, mean ± SD, read-out: EC50 (concentration resulting in a 50% inhibition in virus production)) was 1290 ± 740 nM. The “fold more anti-DENV activity than ribavirin” value (DENV2; EC50 compared with ribavirin) was “approximately 10 fold”, the viability at 72 h, 20 µM ([2]; Huh-7 cells, 20 μM, 72 h, XTT, read-out: Huh-7 Cell % viability at 20 μM) was 99.7 ± 1.65% and the viability at 72 h, 200 µM ([2]; Huh-7 cells, 200 μM, 72 h, XTT, read-out: Huh-7 Cell % viability at 200 μM) was 85%. For the same molecule, the CC50 at 72 h ([2]; uninfected Huh-7 cells, read-out: CC50 (concentration causing a 50% growth inhibition of uninfected Huh-7 cells)) was over 200000 nM, the “Huh-7 Cell % viability at 200 μM” value (Huh-7 cells; 200 μM, 72 h, XTT, mean ± SD) was 85.26 ± 5.63% and the cytotoxicity in words (Huh-7 cells; Huh-7 cells) was “non-cytotoxic; also recorded: no significant cell cytotoxicity”. The “DENV protein synthesis (Western blotting)” value (DENV [3]) was “dose-dependently reduced”.
